Results on 2 molecules are retold here after patent publication US20130158014A1, “METHOD FOR TREATING DISEASES ASSOCIATED WITH ALTERATIONS IN CELLULAR INTEGRITY USING RHO KINASE INHIBITOR COMPOUNDS” (priority 2008, published 2013).

SMILES strings stand for the structures.

The subject of series [1] is ova-sensitized, ova-challenged mice. Kind of series: Prevention of airway hyperreactivity (Penh, methacholine) in mouse ovalbumin model. The class given is in vivo. The protocol: The anti-inflammatory dosing paradigm consists of dosing the animals once a day starting on day 27 and finishing on either day 30 or 31 (1 hr prior to the aerosolized ovalbumin challenges on days 28 to 30) but not on day 32 when hyperreactivity evaluation occurs. […] Exposure to the methacholine doses consisted of a 3 minute period during which a nebulizer was aerosolizing the methacholine and an additional 3 minute period following the cessation of nebulization. […] Enhanced pause (Penh), a unitless index of airway hyperreactivity, is derived from the expiratory side of the respiratory waveform measured via the plethysmograph and is used as an indirect measure of airway resistance and hyperreactivity. […] Following the methacholine dose response, BALF was collected and all animals were anesthetized, bled and euthanized. […] The Penh value at each of the dose levels of methacholine represents the 6-minute average response. Change from baseline (CFB) in Penh was calculated at each methacholine dose and the area under the curve (AUC) for these CFB values was calculated using the trapezoidal rule. This same approach was applied for each mouse across multiple experiments. […] Data from equal experimental conditions across experiments performed on different days were pooled for statistical analysis and data reporting. […] A random intercept for each experiment was assumed to account for possible similarities of the results obtained from a given experiment (i.e., as a “blocking effect”). […] For FIG. 9, linear AUC values from compound treated mice were reported as a percent of linear AUC values from vehicle-treated ovalbumin-sensitized/ovalbumin-challenged (asthmatic) mice.

The test system is the same in series [2]. The experiment in a line: Mouse ovalbumin sensitization model: eosinophils in BALF. The format is in vivo. The protocol: (§1) Male BALB/c mice were ordered from Charles River Laboratories (Raleigh, N.C.). The animals were approximately 19 to 21 grams at time of receipt. Upon arrival, the animals were randomized into groups of five males per cage and assigned to a dosing group. Animals were quarantined for 7 days under test conditions. They were observed daily for general health status and ability to adapt to the water bottles. Animals were sensitized on day 0 and 14 of study by an intraperitoneal injection with 20 μg of ovalbumin (ova) and 2.0 mg aluminum hydroxide (alum) which initiates the development of a specific T-helper (Th) cells type 2 resulting in asthmatic animals (denoted as Ova in the figures). One group of animals received an injection of saline to use as control animals (denoted as normal in the figures). All animals were challenged with aerosolized 1% ova once daily for 25 minutes on days 28, 29, and 30 (Zosky, et al. Respiratory Research. 2004; 5:15). Aerosol challenge consists of using an Aerogen Aeroneb nebulizer and controller with a particle size of 4-6 μm mass median aerodynamic diameter (MMAD) with a distribution of 400 μl per minute. This aerosol challenge is necessary to target the Th2-driven allergic inflammation in the lower airways. […]
(§2) Bronchoalveolar lavage fluid (BALF) was collected by infusing 3.0 ml of saline with 10% fetal calf serum into the lungs via the trachea and then withdrawing the fluid. The total amount of cells/ml of BALF fluid was determined via manual cell count on hemocytometer. The BALF was centrifuged, supernatant removed and analyzed for cytokine concentrations as described below, and cell pellet reconstituted in 500 μL of fluid. […] Following Hema3 stain, relative percentages of individual leukocytes were determined on a 200 cell count for each sample. The final concentration of individual leukocyte cell types per ml of BALF was determined by multiplication of the relative percentage of individual leukocytes with the total amount of cells/ml of BALF fluid.

In series [3] the test system is LPS-challenged mice. The experiment in a line: LPS-induced neutrophilia assay. The class given is in vivo, mouse. Conditions: intratracheal 0.5-50 μmol/kg one hour prior to LPS challenge; BALF four hours after; FIG. 12. The protocol:
(§3) Male BALB/c mice, approximately 19 to 21 grams, were ordered from Charles River Laboratories (Raleigh, N.C.). All animals were challenged with aerosolized LPS (10 μg/ml) for 25 minutes on study day 0. LPS aerosol was generated using an Aerogen Aeroneb nebulizer and controller providing a flow of 400 μl/min and a particle size of 2-4 μm MMAD. Rolipram was administered i.p at 20 mg/kg. […] Total cell counts were determined using the Coulter Counter. For differential evaluations, BALF was centrifuged and cytospin slides prepared and stained […]. Manual leukocyte counts were then completed on 200 cells. The final concentration of individual leukocyte cell types per ml of BALF was determined by multiplication of the relative percentage of individual leukocytes with the total amount of cells/ml of BALF fluid. The concentration of IL-1β in the BALF samples was determined using commercially available Bio-plex kits (Bio-Rad).

Series [4] in a line: Rat oral pharmacokinetics (plasma). The class given is in vivo. Conditions: rat oral PK, mean n = 3 rats, 20-30 μmmol/kg.
Protocol: Plasma (EDTA K2 anticoagulant) was collected from male, cannulated, CD Sprague Dawley rats to determine the pharmacokinetics of formulations containing compound inhibitors of Rho kinase. Each animal was dosed orally with a 4 ml/kg solution or suspension of each test compound in 10 mM acetate buffered saline, pH 4.5 at a final concentration range of 20-30 μmmol/kg. Blood was collected at 0.25, 0.5, 1, 2, 4, 6, 8, and 24 hours. Plasma samples were assayed for the concentration of the test compound using an on-line, solid phase extraction LC/MS/MS analysis system.
Samples were analyzed on a QSTAR Elite, hybrid quadrupole time-of-flight mass spectrometer (Applied Biosystems, Framingham, Mass.) coupled with a Symbiosis Pharma integrated, on-line SPE-HPLC system (Spark Holland Inc., Plainsboro, N.J.). Analyst QS 2.0 software was used for instrument control, data acquisition and processing. […] Mobile Phase A consisted of 0.1% ammonium hydroxide in water and Mobile Phase B consisted of 0.1% formic acid in acetonitrile. Pharmacokinetic analyses were performed using WinNonlin software version 5.2 (Pharsight Corporation, Mountain View, Calif.).
As determined from the plasma concentration versus time curves, the time to peak and peak exposure are represented by the values Tmax and Cmax, respectively. The AUC values (nM*hr) shown were calculated as the areas under the plasma concentration versus time curves from time zero through the time of the last observable value and represent the total exposure of the compound over the course of the study. Half-life values or the amount of time required for the plasma levels of the compound to decline to half the initial value are represented as t1/2.
The test system of series [5] is LPS-challenged mice. Kind of series: LPS-induced cytokine production assay (IL-1β in BALF). The class given is in vivo, mouse. To be noted: intratracheal, one hour prior to LPS challenge; BALF four hours after; FIG. 13. The protocol: as §3
The subject of the next series is murine eosinophils. Kind of series: Murine eosinophil chemotaxis (eotaxin-induced). Conditions: 10 nM eotaxin challenge, one hour; FIG. 10. The class given is cell-based, mouse. The protocol:
Bronchoalveolar lavage was collected from ovalbumin sensitized and challenged mice in a volume of 2.5 mL lavage buffer. The lavage buffer was 0.9% saline with 10% fetal bovine serum. The pooled lavages were maintained on ice until use. The murine eosinophils were isolated using MACS cell separation (Miltenyi Biotech) by depletion of B cells and T cells by positive selection following incubation with antibody conjugated magnetic beads specific for CD45-R (B220) and CD90 (Thy 1.2), which bind B cells and T cells, respectively.
Eosinophil chemotaxis was assessed using a modified Boyden Chamber (Neuroprobe, 96-well) with a 5 μm pore membrane. The ability of the tested compounds to block chemotaxis induced by a 10 nM eotaxin challenge (mouse) or 1 nM eotaxin challenge (human) during one hour incubation at 37° C. with 5% CO2 was assessed. Chemotaxis was quantified via microscopy by counting the number of migrated cells in at least 3 view fields per treatment. […] FIG. 11 demonstates that chemotaxis was induced by eotaxin in human eosinophils.

A further series relates to human eosinophils. Kind of series: Human eosinophil chemotaxis (eotaxin-induced). The format is cell-based. Conditions: 1 nM eotaxin challenge, one hour; FIG. 11. An excerpt:
Peripheral blood from healthy human volunteers was collected and the PMNs separated via Ficoll-paque density centrifugation followed by hypotonic lysis of the red blood cells. Subsequently, the human eosinophils were isolated from the cell suspension via StemCell Technologies Human Eosinophil Enrichment kit (Cat. No 19256) according to the manufacturer's recommendations. Briefly, unwanted cells were specifically labeled with dextran-coated magnetic nanoparticles using bispecific Tetrameric Antibody Complexes (TAC) directed against cell surface antigens on human blood cells: […] The unwanted cells are then separated from the unlabelled eosinophils using the EasySep® magnetic isolation procedure. […] FIG. 11 demonstates that chemotaxis was induced by eotaxin in human eosinophils.

In series [6] the test system is ova-sensitized, ova-challenged mice. The experiment in a line: Mouse ovalbumin sensitization model: cytokines (IL-5, Eotaxin, IL-13) in BALF. The class given is in vivo. To be noted: oral on days 27 to 31. The protocol: as §1, with “5:15).” for “5:15). Aerosol challenge consists of using an Aerogen Aeroneb nebulizer and controller with a particle size of 4-6 μm mass median aerodynamic diameter (MMAD) with a distribution of 400 μl per minute. This aerosol challenge is necessary to target the Th2-driven allergic inflammation in the lower airways.”
as §2
The concentrations of cytokines in the BALF samples were determined using commercially available Bio-plex kits (Bio-Rad) for the detection of mouse IL-5, IL-13, and Eotaxin. The analysis of cytokine levels was measured using the Bio-Plex 200 (Bio-Rad) system according to the manufacturer's instructions.

Regarding `CS(=O)(=O)Nc1cccc(CN2CCC[C@H](Nc3ccc4[nH]ncc4c3)C2)c1` [Compound 1.091], the airway hyperreactivity result in series [1] (intratracheal once a day, days 27 to 30, FIG. 9) is given as “prevention of airway hyperreactivity”. In series [2] (dosed i.t. once a day, day 27 to day 30, FIG. 5), the “eosinophils in BALF” value is recorded as “reduction of eosinophils”. Further, the pulmonary neutrophilia influx entry with LPS-challenged mice [3] is on record as “significant reduction”. In addition, in series [4], the “AUC (0-last)” value was “BLQ”, the Cmax result is “BLQ”, the Tmax entry is “BLQ” and the Vz_F entry is listed as “BLQ”. Besides, the t½ entry in series [4] is reported as “BLQ”. The “IL-1β in BALF” value with LPS-challenged mice [5] was “reduction”.

For `CS(=O)(=O)Nc1cccc(CN2CC[C@@H](Nc3cccc4cnccc34)C2)c1` [Compound 2.038], the “murine eosinophil chemotactic response” value in the series with murine eosinophils was “inhibited”. Also, the “airway hyperreactivity to methacholine on Day 32” value in series [1] (oral 15 μMol/kg once a day, days 27 to 31) was “prevention of airway hyperreactivity”. Further, in the series on human eosinophils, the “human eosinophil chemotactic response” value was “inhibited”. Besides, in series [2] (dosed orally once a day, day 27 to day 31, FIG. 4), the “eosinophils per ml of BALF” value is “reduced”. The “concentration of IL-5 in BALF” value in series [6] (FIG. 6) is “reduced levels”. Further, in series [6] (FIG. 7), the “concentration of Eotaxin in BALF” value is listed as “reduced levels”. The “concentration of IL-13 in BALF” value in series [6] (FIG. 8) is recorded as “reduced levels”.
